Experimental data reported in PubChem BioAssay AID330 (DTP/NCI, 2004).
“And” between values parts separate entries of the source, which are not always exact repeats. Equal values may be shown once. Toxic doses and inconclusive results are not listed.

Test system: P388 leukemia ip, CD2F1 mice, survival T/C
Experiment: NCI In Vivo Anticancer Drug Screen. Data for tumor model P388 Leukemia (intraperitoneal) in CD2F1 (CDF1) mice
Details: endpoint: median survival time, higher = longer survival
Outline: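 Mice carrying the transplanted tumor received test compound or vehicle. Survival was recorded in each group, and the value is the treated-group measurement divided by that of the vehicle-treated control group.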

[1] = dose: 12.5 mg/kg/injection, schedule: Q01DX009 (ip), vehicle: saline with Tween-80
[2] = dose: 25.0 mg/kg/injection, schedule: Q01DX009 (ip), vehicle: saline with Tween-80
[3] = dose: 50.0 mg/kg/injection, schedule: Q01DX009 (ip), vehicle: saline with Tween-80
[4] = dose: 100.0 mg/kg/injection, schedule: Q01DX009 (ip), vehicle: saline with Tween-80
[5] = dose: 200.0 mg/kg/injection, schedule: Q01DX009 (ip), vehicle: saline with Tween-80
[6] = dose: 50.0 mg/kg/injection, schedule: Q01DX009 (ip), vehicle: saline
[7] = dose: 60.0 mg/kg/injection, schedule: Q01DX005 (ip), vehicle: saline with Tween-80
[8] = dose: 120.0 mg/kg/injection, schedule: Q01DX005 (ip), vehicle: saline with Tween-80
[9] = dose: 240.0 mg/kg/injection, schedule: Q01DX005 (ip), vehicle: saline with Tween-80
[10] = dose: 50.0 mg/kg/injection, schedule: Q01DX005 (ip), vehicle: saline
[11] = dose: 100.0 mg/kg/injection, schedule: Q01DX005 (ip), vehicle: saline
[12] = dose: 200.0 mg/kg/injection, schedule: Q01DX005 (ip), vehicle: saline
[13] = dose: 50.0 mg/kg/injection, schedule: Q01DX005 (ip), vehicle: saline with Tween-80
[14] = dose: 100.0 mg/kg/injection, schedule: Q01DX005 (ip), vehicle: saline with Tween-80
[15] = dose: 200.0 mg/kg/injection, schedule: Q01DX005 (ip), vehicle: saline with Tween-80
[16] = dose: 50.0 mg/kg/injection, schedule: Q01DX009 (ip), vehicle: Klucel (hydroxypropylcellulose) (HPC)
[17] = dose: 100.0 mg/kg/injection, schedule: Q01DX009 (ip), vehicle: Klucel (hydroxypropylcellulose) (HPC)
[18] = dose: 200.0 mg/kg/injection, schedule: Q01DX009 (ip), vehicle: Klucel (hydroxypropylcellulose) (HPC)

## C[N+]1=CN(S(=O)(=O)C2C=CC=CC=C2)C(C)(C)C1(C)C
dose: 100.0 mg/kg/injection, schedule: Q04DX003 (ip), vehicle: saline
  T/C: 103 % of control
dose: 200.0 mg/kg/injection, schedule: Q04DX003 (ip), vehicle: saline
  T/C: 103 % of control
dose: 400.0 mg/kg/injection, schedule: Q04DX003 (ip), vehicle: saline
  T/C: 99 % of control

## COc1cccc2c1C(=O)c1c(O)c3c(c(O)c1C2=O)CC(O)(C(=O)CO)CC3OC1CC(N/C(C)=C/C(C)=O)C(O)C(C)O1 (stereo unspecified)
dose: 10.0 mg/kg/injection, schedule: Q04DX003 (ip), vehicle: saline with Tween-80
  T/C: 160 % of control

## O=[Se]([O][Sn]([O][Se](=O)c1ccccc1)([O][Se](=O)c1ccccc1)[O][Se](=O)c1ccccc1)c1ccccc1 (stereo unspecified)
[1]
  T/C: 98 % of control
[2]
  T/C: 103 % of control
[3]
  T/C: 110 % of control and 118 % of control

## c1ccc2[nH]ncc2c1
[3]
  T/C: 96 % of control
[4]
  T/C: 102 % of control
[5]
  T/C: 100 % of control

## COc1ccc(CCN(C=O)CCc2ccc(OC)c(OC)c2)cc1OC
dose: 25.0 mg/kg/injection, schedule: Q01DX009 (ip), vehicle: other
  T/C: 97 % of control
dose: 100.0 mg/kg/injection, schedule: Q01DX009 (ip), vehicle: other
  T/C: 109 % of control
dose: 200.0 mg/kg/injection, schedule: Q01DX009 (ip), vehicle: other
  T/C: 101 % of control
dose: 400.0 mg/kg/injection, schedule: Q01DX009 (ip), vehicle: other
  T/C: 103 % of control

## C1C[N+]2(CCO1)CC[N+]1(CCOCC1)CC2
dose: 60.0 mg/kg/injection, schedule: Q01DX005 (ip), vehicle: saline
  T/C: 110 % of control
dose: 120.0 mg/kg/injection, schedule: Q01DX005 (ip), vehicle: saline
  T/C: 101 % of control
dose: 240.0 mg/kg/injection, schedule: Q01DX005 (ip), vehicle: saline
  T/C: 101 % of control

## C[CH2][GeH][CH2]C.C[CH2][Ge]([CH2]C)[CH2]C
[6]
  T/C: 93 % of control
dose: 100.0 mg/kg/injection, schedule: Q01DX009 (ip), vehicle: saline
  T/C: 90 % of control

## Cc1ccc(S(=O)(=O)OCC2COC(C(C)C)OC2)cc1 (stereo unspecified)
[7]
  T/C: 99 % of control
[8]
  T/C: 90 % of control
[9]
  T/C: 90 % of control

## COC(=O)C(O)(/C(=N\O)c1ccccc1)c1ccccc1 (stereo unspecified)
[7]
  T/C: 97 % of control
[8]
  T/C: 90 % of control

## CC1=CN2C(c3cccc([N+](=O)[O-])c3)=NON(c3ccc(C)cn3)C2C=C1 (stereo unspecified)
[7]
  T/C: 87 % of control
[8]
  T/C: 86 % of control
[9]
  T/C: 92 % of control

## CCCOP(=O)(NNP(=O)(OCCC)OCCC)OCCC
[3]
  T/C: 106 % of control
[4]
  T/C: 116 % of control
[5]
  T/C: 116 % of control

## c1ccc(CC2CCc3ccccc3/C2=N/OCC2CO2)cc1 (stereo unspecified)
dose: 30.0 mg/kg/injection, schedule: Q01DX005 (ip), vehicle: saline with Tween-80
  T/C: 101 % of control
[7]
  T/C: 97 % of control
[8]
  T/C: 98 % of control

## C/C=C(\C)C(=O)O[C@@H]1c2cc3c(cc2-c2c(cc(OC)c(OC)c2OC)[C@@H]2C(=O)OC[C@@H]12)OCO3
dose: 1.25 mg/kg/injection, schedule: Q01DX009 (ip), vehicle: Klucel (hydroxypropylcellulose) (HPC)
  T/C: 92 % of control
dose: 2.5 mg/kg/injection, schedule: Q01DX009 (ip), vehicle: Klucel (hydroxypropylcellulose) (HPC)
  T/C: 111 % of control
dose: 5.0 mg/kg/injection, schedule: Q01DX009 (ip), vehicle: Klucel (hydroxypropylcellulose) (HPC)
  T/C: 113 % of control
dose: 10.0 mg/kg/injection, schedule: Q01DX009 (ip), vehicle: Klucel (hydroxypropylcellulose) (HPC)
  T/C: 103 % of control

## S=c1nc(-c2nc(=S)[nH]c3c2CCCCC3)c2c([nH]1)CCCCC2
dose: 60.0 mg/kg/injection, schedule: Q01DX005 (ip), vehicle: Klucel (hydroxypropylcellulose) (HPC)
  T/C: 97 % of control
dose: 120.0 mg/kg/injection, schedule: Q01DX005 (ip), vehicle: Klucel (hydroxypropylcellulose) (HPC)
  T/C: 96 % of control
dose: 240.0 mg/kg/injection, schedule: Q01DX005 (ip), vehicle: Klucel (hydroxypropylcellulose) (HPC)
  T/C: 92 % of control

## CC(c1ccccc1)N1COc2ccc3ccccc3c2C1 (stereo unspecified)
dose: 100.0 mg/kg/injection, schedule: Q04DX003 (ip), vehicle: saline with Tween-80
  T/C: 95 % of control
dose: 200.0 mg/kg/injection, schedule: Q04DX003 (ip), vehicle: saline with Tween-80
  T/C: 95 % of control
dose: 400.0 mg/kg/injection, schedule: Q04DX003 (ip), vehicle: saline with Tween-80
  T/C: 95 % of control

## CCCCCCn1c(Cl)c(C(=O)O)c2ccccc21
dose: 100.0 mg/kg/injection, schedule: Q04DX002 (ip), vehicle: saline with Tween-80
  T/C: 99 % of control
dose: 200.0 mg/kg/injection, schedule: Q04DX002 (ip), vehicle: saline with Tween-80
  T/C: 97 % of control
dose: 400.0 mg/kg/injection, schedule: Q04DX002 (ip), vehicle: saline with Tween-80
  T/C: 95 % of control

## CCCNCc1cccc2ccnc(C)c12
[10]
  T/C: 109 % of control
[11]
  T/C: 104 % of control
[12]
  T/C: 101 % of control

## O=C(SCc1ccccc1)c1cccnc1
[2]
  T/C: 105 % of control
[3]
  T/C: 110 % of control
[4]
  T/C: 100 % of control

## C/C=C1\CNC2Cc3c([nH]c4ccccc34)C(c3c(OC)ccc4c5c([nH]c34)C3(C(=O)OC)CC4CC(CC)C3N(CC5)C4)CC1C2C(=O)OC (stereo unspecified)
dose: 1.56 mg/kg/injection, schedule: Q01DX009 (ip), vehicle: saline with Tween-80
  T/C: 93 % of control
dose: 3.12 mg/kg/injection, schedule: Q01DX009 (ip), vehicle: saline with Tween-80
  T/C: 90 % of control
[1]
  T/C: 93 % of control
[2]
  T/C: 90 % of control

## CN(C/C=C/CN(C)C(=S)Nc1ccccc1)C(=S)Nc1ccccc1
dose: 12.5 mg/kg/injection, schedule: Q01DX009 (ip), vehicle: saline
  T/C: 95 % of control
dose: 25.0 mg/kg/injection, schedule: Q01DX009 (ip), vehicle: saline
  T/C: 106 % of control
dose: 25.0 mg/kg/injection, schedule: Q01DX009 (ip), vehicle: suspension in saline
  T/C: 91 % of control
[6]
  T/C: 90 % of control
dose: 50.0 mg/kg/injection, schedule: Q01DX009 (ip), vehicle: suspension in saline
  T/C: 86 % of control and 87 % of control

## O=C(CBr)Nc1c(Br)cc(F)cc1Br
[3]
  T/C: 100 % of control
[4]
  T/C: 92 % of control
[5]
  T/C: 100 % of control

## C[CH2][Sn]([CH2]C)([O]C(C)=O)[O][Sn]([CH2]C)([CH2]C)[O]C(C)=O
dose: 6.25 mg/kg/injection, schedule: Q01DX009 (ip), vehicle: saline
  T/C: 155 % of control

## CCOC(=O)CC1=CSC(=C(C(=O)OCC)C(=O)OCC)N1c1ccccc1
[13]
  T/C: 96 % of control
[14]
  T/C: 91 % of control
[15]
  T/C: 86 % of control

## O=C(Nc1c(Cl)cccc1Cl)OC1CCCCCCCCCCC1
[16]
  T/C: 100 % of control
[17]
  T/C: 92 % of control
[18]
  T/C: 86 % of control

## CCCOc1cc2c(cc1C/C=C/c1ccccc1)OCO2
[13]
  T/C: 94 % of control
[14]
  T/C: 100 % of control
[15]
  T/C: 102 % of control

## CCOc1ccccc1NC(=S)Nc1ccccc1C(F)(F)F
[16]
  T/C: 109 % of control
[17]
  T/C: 100 % of control
[18]
  T/C: 100 % of control

## CCOC(=O)C1(c2cc(NS(=O)(=O)c3ccccc3)ccc2O)CCCCC1=O (stereo unspecified)
dose: 12.5 mg/kg/injection, schedule: Q01DX001 (ip), vehicle: saline with Tween-80
  T/C: 104 % of control
dose: 25.0 mg/kg/injection, schedule: Q01DX001 (ip), vehicle: saline with Tween-80
  T/C: 104 % of control
dose: 50.0 mg/kg/injection, schedule: Q01DX001 (ip), vehicle: saline with Tween-80
  T/C: 100 % of control

## COc1cccc2c1C(=O)c1c(OC)c(C=O)cc(OC)c1C2=O
dose: 50.0 mg/kg/injection, schedule: Q01DX009 (ip), vehicle: water
  T/C: 99 % of control
dose: 100.0 mg/kg/injection, schedule: Q01DX009 (ip), vehicle: water
  T/C: 100 % of control
dose: 200.0 mg/kg/injection, schedule: Q01DX009 (ip), vehicle: water
  T/C: 98 % of control

## CC12Cc3ccccc3CC1OCN1CN2COC2Cc3ccccc3CC21C (stereo unspecified)
[10]
  T/C: 105 % of control
[11]
  T/C: 98 % of control
[12]
  T/C: 90 % of control
